For this assay, the target named is T1, PpBBE1 (Physcomitrium patens, UniProt A0A2K1JP57, D396N).
T1 construct: gene PHYPA_015719; full-length precursor 501 residues; native signal peptide (predicted 1-30) removed; C-terminal octahistidine tag; secreted from Komagataella phaffii KM71H (pPICZalpha, PDI coexpressed); ca. 54 kDa; monomer; bicovalent FAD
Briefly: X-ray crystal structure, […] A. To be noted: covalent; bicovalent via 8alpha to H111 and C6 to C172. In kind it is binding.

T1 sequence (A0A2K1JP57 entry or part of it D396N): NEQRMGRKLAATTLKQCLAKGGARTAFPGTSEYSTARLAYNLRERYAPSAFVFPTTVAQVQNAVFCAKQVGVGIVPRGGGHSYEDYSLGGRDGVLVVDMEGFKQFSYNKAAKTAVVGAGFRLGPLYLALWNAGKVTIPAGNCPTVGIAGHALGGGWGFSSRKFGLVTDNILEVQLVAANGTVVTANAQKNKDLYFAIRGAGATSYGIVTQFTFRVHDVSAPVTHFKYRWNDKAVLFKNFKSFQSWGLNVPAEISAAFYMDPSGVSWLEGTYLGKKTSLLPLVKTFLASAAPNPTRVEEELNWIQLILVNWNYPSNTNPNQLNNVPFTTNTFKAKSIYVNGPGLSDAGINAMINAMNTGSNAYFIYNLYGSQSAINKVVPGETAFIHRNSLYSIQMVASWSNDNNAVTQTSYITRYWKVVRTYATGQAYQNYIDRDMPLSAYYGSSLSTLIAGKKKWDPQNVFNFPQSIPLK

In the case of `Cc1cc2nc3c(=O)[nH]c(=O)nc-3n(C[C@H](O)[C@H](O)[C@H](O)COP(=O)(O)OP(=O)(O)OC[C@H]3O[C@@H](n4cnc5c(N)ncnc54)[C@H](O)[C@@H]3O)c2cc1C` [FAD], the “X-ray crystal structure, 2.6 A” value is “confirmed the bicovalent linkage of the flavin cofactor”.

The values are drawn from paper PMC6001459 (The Febs Journal, 2018).
